Assay results from US20240315958A1, “METHOD AND DEVICE FOR PROVIDING EFFECTIVE CONTRACEPTION” (Chemo Research, S.L., priority 2023, published 2024).

What was measured:
women = conditions: POP; desogestrel 0.075 mg, LNG 0.030 mg; cited from earlier work
[1] = test system: healthy female subjects aged 18-35 years; experiment: Inhibition of ovulation / ovarian activity by Hoogland score, phase 2 clinical trial; format: in vivo, human; conditions: 75 μg/day of levonorgestrel, vaginal
Method: The study consists of 4 phases: • Screening phase (minimum of 4 weeks and maximum of 8 weeks if washout cycle was needed). • Pre-treatment cycle (28 days) and randomization. • Treatment cycle consisting of 56 treatment days (2 cycles, 28 days per cycle). • Post-treatment cycle (28 days).
The inhibition of ovulation was determined by the calculation of the Hoogland Score, which combined the measurement of follicle size in mm by TVU and progesterone/estradiol serum concentration in nmol/L (in case an ovulation was suspected sonographically in TC1 or TC2, it was confirmed by blood progesterone levels and reflected by Landgren Score).
Primary endpoint analysis: the inhibition of ovulation (Yes, No), was analyzed through a logistic regression model to compare inhibition of ovulation across treatment groups in which BMI was included as covariate. Adjusted odds ratios (ORs) with their two-sided 95% CI were calculated. No hypothesis testing was performed.

[2] = test system: healthy female subjects aged 18-35 years; experiment: Return of ovulation in post-treatment cycle; format: in vivo, human; conditions: FAS; 28-day post-treatment cycle
[3] = oral administration; cited from earlier work

Structure (SMILES) | Cycles with ovulation inhibited (women) | Ovulation inhibition [1] [%] | Participants with return of ovulation during post-treatment, % [2] | Bioavailability [3] [%]
C#C[C@]1(O)CC[C@H]2[C@@H]3CCC4=CCCC[C@@H]4[C@H]3C(=C)C[C@@]21CC [desogestrel] | at least 98% |  |  | 
C#C[C@]1(O)CC[C@H]2[C@@H]3CCC4=CC(=O)CC[C@@H]4[C@H]3CC[C@@]21CC [levonorgestrel] |  | 100 | more than 80% | ~100
